US8263605B2, “Modulators of muscarinic receptors” (Vertex Pharmaceutical Incorporated, priority 2006, dated 2012)

Key:
M1 muscarinic receptor = molecular target: T1, M1 muscarinic receptor (Homo sapiens, UniProt P11229); test: Functional mobilization of intracellular calcium (FLIPR), M1-CHO cells; format: cell-based; details: for Emax: 100% efficacy is the maximum response obtained with the Carbachol control; for M1 Activity: CHO cells expressing M1, calcium mobilization
T1 construct: expressed in transfected cells; host or cells: CHO (M1-CHO)
T1 sequence (P11229 1-460): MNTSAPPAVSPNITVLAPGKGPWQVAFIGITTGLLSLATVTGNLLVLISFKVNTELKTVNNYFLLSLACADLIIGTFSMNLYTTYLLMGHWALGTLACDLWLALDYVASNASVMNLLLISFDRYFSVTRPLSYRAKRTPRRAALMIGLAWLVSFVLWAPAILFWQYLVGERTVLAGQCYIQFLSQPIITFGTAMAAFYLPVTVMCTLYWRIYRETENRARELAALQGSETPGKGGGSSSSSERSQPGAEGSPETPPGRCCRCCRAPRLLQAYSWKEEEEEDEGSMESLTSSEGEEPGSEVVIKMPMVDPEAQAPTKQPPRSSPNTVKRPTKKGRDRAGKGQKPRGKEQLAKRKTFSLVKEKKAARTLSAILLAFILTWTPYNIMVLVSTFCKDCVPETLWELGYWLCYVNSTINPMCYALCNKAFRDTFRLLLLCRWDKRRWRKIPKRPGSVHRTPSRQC
Summary of the method: (§1)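 Recombinant CHO cells loaded with Fluo-3 AM or Calcium 3 dye; fluorescence recorded 60 s on FLIPR in pH 7.4 buffer with 1 mM probenecid, 0.5% DMSO. Agonist mode: compound alone; antagonist mode: 15 min preincubation (or co-application) then carbachol at EC80. Efficacy relative to maximal carbachol response.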

M4 muscarinic receptor = molecular target: T2, M4 muscarinic receptor (Homo sapiens, UniProt P08173); test: Functional mobilization of intracellular calcium (FLIPR), M4-CHO cells; format: cell-based; details: for Emax: 100% efficacy is the maximum response obtained with the Carbachol control; for M4 Activity: CHO cells expressing M4, calcium mobilization
T2 construct: expressed in transfected cells; host or cells: CHO (M4-CHO)
T2 sequence (P08173 1-479): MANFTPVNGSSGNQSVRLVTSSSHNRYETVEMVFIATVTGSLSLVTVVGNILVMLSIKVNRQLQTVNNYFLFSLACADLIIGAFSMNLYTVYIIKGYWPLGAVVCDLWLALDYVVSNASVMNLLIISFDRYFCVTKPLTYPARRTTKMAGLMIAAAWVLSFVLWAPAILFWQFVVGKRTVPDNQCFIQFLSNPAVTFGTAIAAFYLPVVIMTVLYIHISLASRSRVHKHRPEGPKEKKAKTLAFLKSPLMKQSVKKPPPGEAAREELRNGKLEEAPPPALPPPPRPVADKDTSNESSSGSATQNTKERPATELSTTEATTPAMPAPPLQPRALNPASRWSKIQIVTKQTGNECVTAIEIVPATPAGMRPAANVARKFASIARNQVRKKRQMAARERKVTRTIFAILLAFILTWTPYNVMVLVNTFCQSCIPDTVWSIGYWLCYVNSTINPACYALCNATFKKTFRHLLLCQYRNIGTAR
Summary of the method: as §1

## Cc1nsc(N2CCC(N3CCC4(CC3)CN(C(=O)N(C)C)c3ccccc34)CC2)n1 [compound 53]
M1 muscarinic receptor
  Emax: 25 to 100%
  M1 Activity: +++ (activity was measured to be less than 2.0 μM)
M4 muscarinic receptor
  Emax: > 100%
  M4 Activity: +++ (activity was measured to be less than 2.0 μM)

## COC(=O)N1CC[C@@H](CN2CCC3(CC2)CN(C(=O)N(C)C)c2ccccc23)C1 [compound 54]
M1 muscarinic receptor
  Emax: 25 to 100%
  M1 Activity: +++ (activity was measured to be less than 2.0 μM)
M4 muscarinic receptor
  Emax: 25 to 100%
  M4 Activity: +++ (activity was measured to be less than 2.0 μM)

## CCCOC(=O)N1CC[C@@H](CN2CCC3(CC2)CN(C(=O)N(C)C)c2ccccc23)C1 [compound 55]
M1 muscarinic receptor
  Emax: < 25%
  M1 Activity: ++ (activity was measured to be from 2.0 μM to 10.0 μM)
M4 muscarinic receptor
  Emax: 25 to 100%
  M4 Activity: +++ (activity was measured to be less than 2.0 μM)

## CC(C)OC(=O)N1CC[C@@H](CN2CCC3(CC2)CN(C(=O)N(C)C)c2ccccc23)C1 [compound 56]
M1 muscarinic receptor
  Emax: 25 to 100%
  M1 Activity: ++ (activity was measured to be from 2.0 μM to 10.0 μM)
M4 muscarinic receptor
  Emax: 25 to 100%
  M4 Activity: +++ (activity was measured to be less than 2.0 μM)

## CN(C)C(=O)N1CC2(CCN(C[C@@H]3CCN(C(=O)OCC(F)F)C3)CC2)c2ccccc21 [compound 57]
M1 muscarinic receptor
  Emax: 25 to 100%
  M1 Activity: +++ (activity was measured to be less than 2.0 μM)
M4 muscarinic receptor
  Emax: 25 to 100%
  M4 Activity: +++ (activity was measured to be less than 2.0 μM)

## COCCOC(=O)N1CC[C@@H](CN2CCC3(CC2)CN(C(=O)N(C)C)c2ccccc23)C1 [compound 58]
M1 muscarinic receptor
  Emax: 25 to 100%
  M1 Activity: ++ (activity was measured to be from 2.0 μM to 10.0 μM)
M4 muscarinic receptor
  Emax: 25 to 100%
  M4 Activity: +++ (activity was measured to be less than 2.0 μM)

## COC(=O)N1CC[C@H](CN2CCC3(CC2)CN(C(=O)N(C)C)c2ccccc23)C1 [compound 59]
M1 muscarinic receptor
  Emax: 25 to 100%
  M1 Activity: +++ (activity was measured to be less than 2.0 μM)
M4 muscarinic receptor
  Emax: 25 to 100%
  M4 Activity: +++ (activity was measured to be less than 2.0 μM)

## CCOC(=O)N1CC[C@H](CN2CCC3(CC2)CN(C(=O)N(C)C)c2ccccc23)C1 [compound 60]
M1 muscarinic receptor
  Emax: 25 to 100%
  M1 Activity: +++ (activity was measured to be less than 2.0 μM)
M4 muscarinic receptor
  Emax: 25 to 100%
  M4 Activity: +++ (activity was measured to be less than 2.0 μM)

## CCCOC(=O)N1CC[C@H](CN2CCC3(CC2)CN(C(=O)N(C)C)c2ccccc23)C1 [compound 61]
M1 muscarinic receptor
  Emax: < 25%
  M1 Activity: ++ (activity was measured to be from 2.0 μM to 10.0 μM)
M4 muscarinic receptor
  Emax: 25 to 100%
  M4 Activity: +++ (activity was measured to be less than 2.0 μM)

## CC(C)OC(=O)N1CC[C@H](CN2CCC3(CC2)CN(C(=O)N(C)C)c2ccccc23)C1 [compound 62]
M1 muscarinic receptor
  Emax: 25 to 100%
  M1 Activity: ++ (activity was measured to be from 2.0 μM to 10.0 μM)
M4 muscarinic receptor
  Emax: 25 to 100%
  M4 Activity: +++ (activity was measured to be less than 2.0 μM)

## CN(C)C(=O)N1CC2(CCN(C[C@H]3CCN(C(=O)OCC(F)F)C3)CC2)c2ccccc21 [compound 63]
M1 muscarinic receptor
  Emax: 25 to 100%
  M1 Activity: +++ (activity was measured to be less than 2.0 μM)
M4 muscarinic receptor
  Emax: 25 to 100%
  M4 Activity: +++ (activity was measured to be less than 2.0 μM)

## COCCOC(=O)N1CC[C@H](CN2CCC3(CC2)CN(C(=O)N(C)C)c2ccccc23)C1 [compound 64]
M1 muscarinic receptor
  Emax: 25 to 100%
  M1 Activity: ++ (activity was measured to be from 2.0 μM to 10.0 μM)
M4 muscarinic receptor
  Emax: 25 to 100%
  M4 Activity: +++ (activity was measured to be less than 2.0 μM)

## COC(=O)N1CCCC(N2CCC3(CC2)CN(C(=O)N(C)C)c2ccccc23)CC1 (stereo not shown) [compound 67]
M1 muscarinic receptor
  Emax: 25 to 100%
  M1 Activity: +++ (activity was measured to be less than 2.0 μM)
M4 muscarinic receptor
  Emax: 25 to 100%
  M4 Activity: +++ (activity was measured to be less than 2.0 μM)

## CCOC(=O)N1CCCC(N2CCC3(CC2)CN(C(=O)N(C)C)c2ccccc23)CC1 (stereo not shown) [compound 68]
M1 muscarinic receptor
  Emax: 25 to 100%
  M1 Activity: +++ (activity was measured to be less than 2.0 μM)
M4 muscarinic receptor
  Emax: > 100%
  M4 Activity: +++ (activity was measured to be less than 2.0 μM)

## CCCOC(=O)N1CCCC(N2CCC3(CC2)CN(C(=O)N(C)C)c2ccccc23)CC1 (stereo not shown) [compound 69]
M1 muscarinic receptor
  Emax: 25 to 100%
  M1 Activity: +++ (activity was measured to be less than 2.0 μM)
M4 muscarinic receptor
  Emax: 25 to 100%
  M4 Activity: +++ (activity was measured to be less than 2.0 μM)

## CC(C)OC(=O)N1CCCC(N2CCC3(CC2)CN(C(=O)N(C)C)c2ccccc23)CC1 (stereo not shown) [compound 70]
M1 muscarinic receptor
  Emax: 25 to 100%
  M1 Activity: ++ (activity was measured to be from 2.0 μM to 10.0 μM)
M4 muscarinic receptor
  Emax: 25 to 100%
  M4 Activity: +++ (activity was measured to be less than 2.0 μM)

## CN(C)C(=O)N1CC2(CCN(C3CCCN(C(=O)OCC(F)F)CC3)CC2)c2ccccc21 (stereo not shown) [compound 71]
M1 muscarinic receptor
  Emax: 25 to 100%
  M1 Activity: +++ (activity was measured to be less than 2.0 μM)
M4 muscarinic receptor
  Emax: 25 to 100%
  M4 Activity: +++ (activity was measured to be less than 2.0 μM)

## COCCOC(=O)N1CCCC(N2CCC3(CC2)CN(C(=O)N(C)C)c2ccccc23)CC1 (stereo not shown) [compound 72]
M1 muscarinic receptor
  Emax: 25 to 100%
  M1 Activity: +++ (activity was measured to be less than 2.0 μM)
M4 muscarinic receptor
  Emax: 25 to 100%
  M4 Activity: +++ (activity was measured to be less than 2.0 μM)

## CN(C)C(=O)N1CC2(CCN(C3CCCN(C(=O)O[C@@H]4CCOC4)CC3)CC2)c2ccccc21 (stereo partly shown) [compound 73]
M1 muscarinic receptor
  Emax: < 25%
  M1 Activity: ++ (activity was measured to be from 2.0 μM to 10.0 μM)
M4 muscarinic receptor
  Emax: 25 to 100%
  M4 Activity: +++ (activity was measured to be less than 2.0 μM)

## Cc1nsc(C2CCC(N3CCC4(CC3)CN(C(=O)N(C)C)c3ccccc34)CC2)n1 (stereo not shown) [compound 74]
M1 muscarinic receptor
  Emax: 25 to 100%
  M1 Activity: +++ (activity was measured to be less than 2.0 μM)
M4 muscarinic receptor
  Emax: 25 to 100%
  M4 Activity: +++ (activity was measured to be less than 2.0 μM)

## CN(C)C(=O)N1CC2(CCN(C3CCN(c4ncns4)CC3)CC2)c2ccccc21 [compound 75]
M1 muscarinic receptor
  Emax: 25 to 100%
  M1 Activity: ++ (activity was measured to be from 2.0 μM to 10.0 μM)
M4 muscarinic receptor
  Emax: 25 to 100%
  M4 Activity: +++ (activity was measured to be less than 2.0 μM)

## CCc1nsc(N2CCC(N3CCC4(CC3)CN(C(=O)N(C)C)c3ccccc34)CC2)n1 [compound 76]
M1 muscarinic receptor
  Emax: > 100%
  M1 Activity: +++ (activity was measured to be less than 2.0 μM)
M4 muscarinic receptor
  Emax: > 100%
  M4 Activity: +++ (activity was measured to be less than 2.0 μM)

## CN(C)C(=O)N1CC2(CCN(C3CCN(c4cncc(Cl)n4)CC3)CC2)c2ccccc21 [compound 77]
M1 muscarinic receptor
  Emax: 25 to 100%
  M1 Activity: +++ (activity was measured to be less than 2.0 μM)
M4 muscarinic receptor
  Emax: 25 to 100%
  M4 Activity: +++ (activity was measured to be less than 2.0 μM)

## CN(C)C(=O)N1CC2(CCN(C3CCN(c4cnc5ccccc5n4)CC3)CC2)c2ccccc21 [compound 78]
M1 muscarinic receptor
  Emax: 25 to 100%
  M1 Activity: +++ (activity was measured to be less than 2.0 μM)
M4 muscarinic receptor
  Emax: 25 to 100%
  M4 Activity: +++ (activity was measured to be less than 2.0 μM)

## Cc1cncc(N2CCC(N3CCC4(CC3)CN(C(=O)N(C)C)c3ccccc34)CC2)n1 [compound 79]
M1 muscarinic receptor
  Emax: 25 to 100%
  M1 Activity: +++ (activity was measured to be less than 2.0 μM)
M4 muscarinic receptor
  Emax: 25 to 100%
  M4 Activity: +++ (activity was measured to be less than 2.0 μM)

## COC(=O)N1CCCC(N2CCC3(CC2)CN(C(=O)N(C)C)c2ccccc23)CCC1 [compound 80]
M1 muscarinic receptor
  Emax: 25 to 100%
  M1 Activity: +++ (activity was measured to be less than 2.0 μM)
M4 muscarinic receptor
  Emax: > 100%
  M4 Activity: +++ (activity was measured to be less than 2.0 μM)

## CCOC(=O)N1CCC(C)(N2CCC3(CC2)CN(C(=O)N(C)C)c2ccccc23)CC1 [compound 81]
M1 muscarinic receptor
  Emax: 25 to 100%
  M1 Activity: +++ (activity was measured to be less than 2.0 μM)
M4 muscarinic receptor
  Emax: 25 to 100%
  M4 Activity: +++ (activity was measured to be less than 2.0 μM)

## CN(C)C(=O)N1CC2(CCN(C3(C)CCN(c4cnccn4)CC3)CC2)c2ccccc21 [compound 82]
M1 muscarinic receptor
  Emax: 25 to 100%
  M1 Activity: ++ (activity was measured to be from 2.0 μM to 10.0 μM)
M4 muscarinic receptor
  Emax: 25 to 100%
  M4 Activity: +++ (activity was measured to be less than 2.0 μM)
